Reference: patent publication US20250263426A1, “PDE4B INHIBITOR AND USE THEREOF” (Xizang Haisco Pharmaceutical Co., Ltd., priority 2022, published 2025)
Like-named read-outs stand apart in the source and are kept apart here.

Key:
PDE4D2 = PDE4D2 (Homo sapiens (Human), UniProt Q08499); experiment: Effect of compounds on PDE4D2 activity (fluorescence polarization kit); type: biochemical
Method: FP was usually represented by mP value.
[formula] • I∥ (S520): fluorescence intensity in parallel direction • I⊥ (P520): fluorescence intensity in perpendicular direction • G: G factor=1
[formula] • mP(sample): mP of the test compound in a reaction well • mP(negative control): mP in the negative control well • mP(positive control): mP in the positive control well
According to the calculated inhibition rate at each concentration, the IC50 value of each compound was calculated by GraphPad Prism 8 software.

PDE4B2 = PDE4B2 (Homo sapiens (Human), UniProt Q07343); experiment: Effect of compounds on PDE4B2 activity (fluorescence polarization kit)
Sequence of PDE4B2 (Q07343 other isoform, or with tags, fused parts or gaps): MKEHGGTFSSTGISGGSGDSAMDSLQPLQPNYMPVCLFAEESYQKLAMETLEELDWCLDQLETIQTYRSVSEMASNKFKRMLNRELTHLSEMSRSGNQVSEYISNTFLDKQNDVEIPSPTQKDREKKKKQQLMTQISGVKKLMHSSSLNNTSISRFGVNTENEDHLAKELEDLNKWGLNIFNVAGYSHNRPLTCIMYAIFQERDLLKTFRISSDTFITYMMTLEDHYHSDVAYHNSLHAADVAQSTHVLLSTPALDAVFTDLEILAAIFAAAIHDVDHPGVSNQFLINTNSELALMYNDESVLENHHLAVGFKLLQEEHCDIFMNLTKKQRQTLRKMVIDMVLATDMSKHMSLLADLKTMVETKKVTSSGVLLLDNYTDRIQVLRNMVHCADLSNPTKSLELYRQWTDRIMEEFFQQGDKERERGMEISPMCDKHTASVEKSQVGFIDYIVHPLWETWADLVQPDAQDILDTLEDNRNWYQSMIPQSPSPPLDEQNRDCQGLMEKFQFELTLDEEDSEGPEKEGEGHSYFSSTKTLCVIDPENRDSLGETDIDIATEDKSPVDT
Source text: [formula] • I∥ (S535): fluorescence intensity in parallel direction • I⊥ (P535): fluorescence intensity in perpendicular direction • G: G factor=1

[1] = tested on: human peripheral blood mononuclear cells (TNF-α release); experiment: Inhibition of LPS-induced TNF-α release from human peripheral blood mononuclear cells in vitro; type: cell-based; conditions: 4 h; for IC50: read-out: Re IC50
Method: 5. Detection of Inhibitory Activity of Compounds on the Release of Tumor Necrosis Factor-α (TNF-α) from Human Peripheral Blood Mononuclear Cells Induced by Lipopolysaccharide (LPS) In Vitro
The concentration of hPBMC cells was adjusted to 0.25×10^6 cells/mL with RPMI1640 medium and inoculated into a 96-well plate in an amount of 50000 cells per well. […] Incubation was carried out for 4 h in an incubator at 37° C. and 5% CO2. The cell supernatant was collected, and the content of TNF-α in the supernatant sample was detected by human TNF-α Elisa quantitative test kit (Sino Biological, Cat #KIT10602). The IC50 value was calculated using GraphPad Prism software.

[2] = relative IC50, hPBMC, 100 ng/mL LPS

Sequence of PDE4D2 (Q08499 303-809, change not shown): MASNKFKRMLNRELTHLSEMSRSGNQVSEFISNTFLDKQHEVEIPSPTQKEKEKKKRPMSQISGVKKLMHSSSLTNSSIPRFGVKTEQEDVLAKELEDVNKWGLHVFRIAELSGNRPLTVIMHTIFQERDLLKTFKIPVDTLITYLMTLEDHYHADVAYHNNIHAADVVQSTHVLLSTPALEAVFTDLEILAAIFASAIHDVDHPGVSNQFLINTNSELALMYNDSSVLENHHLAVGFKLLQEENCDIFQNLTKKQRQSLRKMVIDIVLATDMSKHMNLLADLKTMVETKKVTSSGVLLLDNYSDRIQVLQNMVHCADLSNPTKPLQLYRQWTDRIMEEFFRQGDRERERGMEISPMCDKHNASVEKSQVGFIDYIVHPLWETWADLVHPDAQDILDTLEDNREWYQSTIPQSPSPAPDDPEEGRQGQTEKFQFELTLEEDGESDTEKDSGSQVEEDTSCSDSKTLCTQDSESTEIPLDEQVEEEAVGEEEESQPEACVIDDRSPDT

Row | IC50 (PDE4D2) [nM] | IC50 (PDE4B2; read-out: PDE4B2 IC50) [nM] | IC50 (PDE4B2) [nM] | SMILES | further results
1 | 50 to 100 | 10 to 50 |  | CC(C)(COC(N)=O)Nc1nc(N2CCN3c4ncc(C5CC5)cc4OC[C@H]3C2)nc2c1[S@+]([O-])CC2 [Compound 113-2] | 
2 | 10 to 50 | 10 to 50 |  | COC(=O)NCC(C)(C)Nc1nc(N2CCN3c4ncc(C)cc4OC[C@H]3C2)nc2c1[S@+]([O-])CC2 [Compound 141-1] | 
3 | 50 to 100 | 10 to 50 |  | COC(=O)NCC(C)(C)Nc1nc(N2CCN3c4ncc(C)cc4OC[C@@H]3C2)nc2c1[S@+]([O-])CC2 [Compound 141-2] | 

The remaining lines, values behind:

Row | SMILES | IC50 (PDE4D2) [nM] | IC50 (PDE4B2; read-out: PDE4B2 IC50) [nM] | IC50 (PDE4B2) [nM] | further results
4 | [O-][S+]1CCc2nc(N3C[C@@H]4CC(c5ccc(Cl)cc5)=C[C@@H]4C3)nc(NC3CN(CCCF)C3)c21 (single isomer, unassigned) [Compound 24-2] | 10 to 50 | < 10 |  | 
5 | CC#Cc1cnc(C2=CCN(c3nc4c(c(NC(C)(C)COC(N)=O)n3)[S+]([O-])CC4)CC2)nc1 (single isomer, unassigned) [Compound 110-1] |  |  |  | Max inhibition (%) ([1]; hPBMC, 100 ng/mL LPS): 88.09%; IC50 [1, 2]: < 10 nM
6 | CC#Cc1cnc(C2=CCN(c3nc4c(c(NC(C)(C)COC(N)=O)n3)[S+]([O-])CC4)CC2)nc1 (single isomer, unassigned) [Compound 110-2] |  |  |  | Max inhibition (%) ([1]; hPBMC, 100 ng/mL LPS): 74.07%; IC50 [1, 2]: < 10 nM
7 | [O-][S@@+]1CCCc2nc(N3CCN(c4ncc(Cl)cn4)CC3)nc(NC3(CO)CCC3)c21 [Compound 12-2] | 10 to 50 | < 10 |  | 
8 | [O-][S@@+]1CCCc2nc(N3C[C@H]4CN(c5ccc6c(c5)CC6)C[C@H]4C3)nc(NC3(CO)CCC3)c21 [Compound 13-2] | 10 to 50 | < 10 |  | 
9 | [O-][S@@+]1CCCc2nc(N3C[C@H]4CN(c5ncc(Cl)cn5)C[C@H]4C3)nc(NC3(CO)CCC3)c21 [Compound 14-1] | 10 to 50 | 10 to 50 |  | 
10 | [O-][S@+]1CCCc2nc(N3C[C@H]4CN(c5ccc(Cl)cc5)C[C@H]4C3)nc(NC3(CO)CCC3)c21 [Compound 15-2] | 10 to 50 | < 10 |  | 
11 | [O-][S@@+]1CCCc2nc(N3CCC=C(c4ccc(Cl)cc4)CC3)nc(NC3(CO)CCC3)c21 [Compound 16-2] | 10 to 50 | 10 to 50 |  | 
12 | [O-][S@@+]1CCCc2nc(N3CCC=C(c4ncc(Cl)cn4)CC3)nc(NC3(CO)CCC3)c21 [Compound 17-2] | 10 to 50 | < 10 |  | 
13 | O=C1CCCc2nc(N3CC4=C(CN(c5ncc(Cl)cn5)C4)C3)nc(NC3(CO)CCC3)c21 [Compound 19-1] | 10 to 50 | < 10 |  | 
14 | [O-][S@+]1CCc2nc(N3CC=C(c4ncc(Cl)cn4)CC3)nc(NC3(CO)CCCC3)c21 [Compound 30] | < 10 |  | < 10 | 
15 | CC(C)(CO)Nc1nc(N2CC=C(c3ncc(Cl)cn3)CC2)nc2c1[S+]([O-])CC2 (stereo not drawn) [Compound 31] | 10 to 50 |  | 10 to 50 | 
16 | C#Cc1cnc(C2=CCN(c3nc4c(c(Nc5cccc(F)c5)n3)[S@@+]([O-])CC4)CC2)nc1 [Compound 36-2] | 10 to 50 | 10 to 50 |  | 
17 | C#Cc1cnc(C2=CCN(c3nc4c(c(NC5(c6ncc[nH]6)CCC5)n3)[S@+]([O-])CC4)CC2)nc1 [Compound 37] |  |  |  | IC50 ([1]; Homo sapiens, PBMC): 10 to 50 nM; Emax ([1]; Homo sapiens, PBMC, hPBMC, 100 ng/mL LPS, read-out: Max inhibition (%)): 78.3%
18 | NC(=O)OCC1(Nc2nc(N3CC=C(c4ncc(C5CC5)cn4)CC3)nc3c2[S@+]([O-])CC3)CCC1 [Compound 47] | < 10 |  |  | Max inhibition (%) ([1]; hPBMC, 100 ng/mL LPS): 80.45%; IC50 [1, 2]: < 10 nM
19 | O=S1(=O)CCCc2nc(N3CC=C(c4ncc(Cl)cn4)CC3)nc(NC3(CO)CCC3)c21 [Compound 54] |  |  | 50 to 100 | 
20 | NC(=O)OCC1(Nc2nc(N3CCC(c4ncc(Cl)cn4)CC3)nc3c2[S@+]([O-])CC3)CCC1 [Compound 55] |  |  | 50 to 100 | 
21 | C#Cc1cnc(N2CCN(c3nc4c(c(NC5(COC(N)=O)CCC5)n3)[S@+]([O-])CC4)CC2)nc1 [Compound 57] | 10 to 50 |  | < 10 | 
22 | NC(=O)OCC1(Nc2nc(N3C[C@H]4CN(c5ccc6c(c5)CC6)C[C@H]4C3)nc3c2[S@+]([O-])CC3)CCC1 [Compound 58] | 10 to 50 |  | < 10 | 
23 | [O-][S@+]1CCc2nc(N3CC4CN(c5ccc6c(c5)CC6)CC4C3)nc(Nc3cccc(S(F)(F)(F)(F)F)c3)c21 (stereo partly drawn) [Compound 75-1] | 10 to 50 | 10 to 50 |  | 
24 | CC#Cc1cnc(C2=CCN(c3nc4c(c(NC5(COC(F)F)CCC5)n3)[S@+]([O-])CC4)CC2)nc1 [Compound 92-1] | < 10 |  |  | Max inhibition (%) ([1]; hPBMC, 100 ng/mL LPS): 69.72%; IC50 [1, 2]: < 10 nM
25 | CC#Cc1cnc(C2=CCN(c3nc4c(c(NC5(COC(F)F)CCC5)n3)[S@@+]([O-])CC4)CC2)nc1 [Compound 92-2] | 10 to 50 |  |  | 
26 | C#Cc1ccc(C2=CCN(c3nc4c(c(NC5([C@@H](C)O)CCC5)n3)[S@+]([O-])CC4)CC2)nc1 [Compound 95-1] | < 10 | < 10 |  | 
27 | C#Cc1ccc(C2=CCN(c3nc4c(c(NC5([C@H](C)O)CCC5)n3)[S@@+]([O-])CC4)CC2)nc1 [Compound 95-4] | < 10 | < 10 |  | 

Row | SMILES | IC50 (PDE4D2) [nM] | IC50 (PDE4B2; read-out: PDE4B2 IC50) [nM] | IC50 (PDE4B2) [nM] | further results
28 | C#Cc1cnc(C2=CCN(c3nc4c(c(NC5([C@@H](C)O)CCC5)n3)[S@@+]([O-])CC4)CC2)nc1 [Compound 96-3] | 10 to 50 | < 10 |  | 
29 | CC(C)(COC(N)=O)Nc1nc(N2CCC=C(c3ncc(Cl)cn3)CC2)nc2c1[S@+]([O-])CC2 [Compound 102-1] |  |  |  | Max inhibition (%) ([1]; hPBMC, 100 ng/mL LPS): 99.73%; IC50 [1, 2]: 10 to 50 nM
30 | CC(C)(COC(N)=O)Nc1nc(N2CCC=C(c3ncc(Cl)cn3)CC2)nc2c1[S@@+]([O-])CC2 [Compound 102-2] |  |  |  | Max inhibition (%) ([1]; hPBMC, 100 ng/mL LPS): 87.54%; IC50 [1, 2]: < 10 nM
31 | CC(C)(CO)Nc1nc(N2CC=C(c3ccc4c(c3)C[Si](C)(C)C4)CC2)nc2c1[S@+]([O-])CC2 [Compound 107] | 10 to 50 | 10 to 50 |  | 
32 | CC(C)(COC(N)=O)Nc1nc(N2CC=C(c3ccc4c(c3)C[Si](C)(C)C4)CC2)nc2c1[S@+]([O-])CC2 [Compound 108] | 10 to 50 |  | 10 to 50 | 
33 | CN1C[C@@H](Nc2nc(N3C[C@H]4CN(c5ccc6c(c5)CC6)C[C@H]4C3)nc3c2[S@+]([O-])CC3)CCC1=O [Compound 109-2] | 50 to 100 | 10 to 50 |  | 
34 | CC#Cc1cnc2c(c1)OC[C@H]1CN(c3nc4c(c(NC(C)(C)COC(N)=O)n3)[S@+]([O-])CC4)CCN21 [Compound 112-2] | 50 to 100 | 10 to 50 |  | 
35 | CC(C)(COC(N)=O)Nc1nc(N2CC=C(c3ncc(C4CC4)cn3)C2)nc2c1[S@+]([O-])CC2 [Compound 116] | 50 to 100 |  | 10 to 50 | 
36 | CC(C)(COC(N)=O)Nc1nc(N2CC=C(c3ncccn3)CC2)nc2c1[S@+]([O-])CC2 [Compound 118] | 10 to 50 |  | 10 to 50 | 
37 | Cc1cnc(C2=CCN(c3nc4c(c(NC(C)(C)COC(N)=O)n3)[S@+]([O-])CC4)CC2)nc1 [Compound 122] | 10 to 50 |  | 10 to 50 | 
38 | COc1cnc(C2=CCN(c3nc4c(c(NC(C)(C)COC(N)=O)n3)[S@+]([O-])CC4)CC2)nc1 [Compound 124] | 10 to 50 |  | 10 to 50 | 
39 | CC(C)(COC(N)=O)Nc1nc(N2CC=C(c3ncc4c(n3)CCC4)CC2)nc2c1[S@+]([O-])CC2 [Compound 125] | 10 to 50 |  | 10 to 50 | 
40 | CC(C)(COC(N)=O)Nc1nc(N2CC=C(c3ncc(C4CCC4)cn3)CC2)nc2c1[S@+]([O-])CC2 [Compound 126] | 10 to 50 |  | < 10 | 
41 | CCOc1cnc(C2=CCN(c3nc4c(c(NC(C)(C)COC(N)=O)n3)[S@+]([O-])CC4)CC2)nc1 [Compound 128] | < 10 |  | < 10 | 
42 | CC(C)c1cnc(C2=CCN(c3nc4c(c(NC(C)(C)COC(N)=O)n3)[S@+]([O-])CC4)CC2)nc1 [Compound 129] | 10 to 50 |  | < 10 | 
43 | CC(C)(COC(N)=O)Nc1nc(N2CC=C(c3ncc(C(F)F)cn3)CC2)nc2c1[S@+]([O-])CC2 [Compound 130] | 10 to 50 |  | 10 to 50 | 
44 | CC(C)(COC(N)=O)Nc1nc(N2CC=C(c3ncc4c(n3)CC4)CC2)nc2c1[S@+]([O-])CC2 [Compound 132] | 10 to 50 |  | 10 to 50 | 
45 | CC(C)(CC#N)Nc1nc(N2CC=C(c3ncc(C4CC4)cn3)CC2)nc2c1[S@+]([O-])CC2 [Compound 134] | < 10 | < 10 |  | 
46 | N#CCC1(Nc2nc(N3CC=C(c4ncc(C5CC5)cn4)CC3)nc3c2[S@+]([O-])CC3)CCC1 [Compound 135] | < 10 |  | < 10 | 
47 | CC(C)(COC(N)=O)Nc1nc(N2CC=C(c3ncc4occc4n3)CC2)nc2c1[S@+]([O-])CC2 [Compound 136] | < 10 |  | < 10 | 
48 | CC(C)(COC(N)=O)Nc1nc(N2CCC=C(c3ncc(C4CC4)cn3)CC2)nc2c1[S@+]([O-])CC2 [Compound 137] | 10 to 50 |  | 10 to 50 | 
49 | CN(C)c1cnc(C2=CCN(c3nc4c(c(NC(C)(C)COC(N)=O)n3)[S@+]([O-])CC4)CC2)nc1 [Compound 138] | 10 to 50 |  | 10 to 50 | 
50 | COC(=O)NCC(C)(C)Nc1nc(N2C[C@H]3CC(c4ncc5c(n4)CC5)=C[C@H]3C2)nc2c1[S@+]([O-])CC2 [Compound 139-2] | 10 to 50 | 10 to 50 |  | 
